Measurements published in patent US10766865B2, “PKM2 modulators and methods for their use” (TOLERO PHARMACEUTICALS, INC., priority 2012, dated 2020).

Target: PKM2 (Homo sapiens, UniProt P14618)
Test: PKM2 Biochemical Assay
Settings: for Max. Resp.: % maximum response in a biochemical assay as compared with Fructose 1,6-bisphosphate

Sequence of PKM2 (P14618 whole entry): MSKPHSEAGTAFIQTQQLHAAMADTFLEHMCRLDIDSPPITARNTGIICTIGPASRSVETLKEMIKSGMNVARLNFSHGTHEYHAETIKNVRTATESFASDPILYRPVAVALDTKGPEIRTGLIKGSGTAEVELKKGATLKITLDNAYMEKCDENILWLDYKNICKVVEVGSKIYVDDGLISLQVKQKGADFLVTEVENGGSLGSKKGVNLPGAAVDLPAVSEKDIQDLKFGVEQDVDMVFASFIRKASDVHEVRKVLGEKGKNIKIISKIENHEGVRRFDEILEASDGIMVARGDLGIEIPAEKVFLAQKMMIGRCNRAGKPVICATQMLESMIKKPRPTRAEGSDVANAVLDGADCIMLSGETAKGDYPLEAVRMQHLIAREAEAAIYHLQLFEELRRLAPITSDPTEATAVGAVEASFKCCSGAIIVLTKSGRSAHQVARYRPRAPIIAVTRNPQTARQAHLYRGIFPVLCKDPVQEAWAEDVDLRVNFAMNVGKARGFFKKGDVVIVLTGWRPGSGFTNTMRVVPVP

Row | SMILES | Max. Resp. | AC50 [nM]
1 | O=C(c1cc(C(F)(F)F)n[nH]1)N(CCN1CCCCCC1)Cc1ccc(O)cc1F [Example 195, N-(2-fluoro-4-hydroxybenzyl)-N-(2-(azepan-1-yl)ethyl)-3-(trifluoromethyl)-1H-pyrazole-5-carboxamide] | 100% | 
2 | CCC1CCN(CCN(Cc2ccccc2Cl)C(=O)c2cc(C(F)(F)F)n[nH]2)CC1 [Example 199, N-(2-chlorobenzyl)-N-(2-(4-ethylpiperidin-1-yl)ethyl)-3-(trifluoromethyl)-1H-pyrazole-5-carboxamide] | 100/100% | 
3 | CC1CCCN(CCN(Cc2cc(N)ccc2Cl)C(=O)c2cc(C(F)(F)F)n[nH]2)C1 (stereo not drawn) [Example 200, N-(5-amino-2-chlorobenzyl)-3-(trifluoromethyl)-N-(2-(3-methylpiperidin-1-yl)ethyl)-1H-pyrazole-5-carboxamide] | 100% | 
4 | CC1CCCN(CCN(Cc2ccccc2F)C(=O)c2cc(C(F)(F)F)n[nH]2)C1 (stereo not drawn) [Example 201, N-(2-fluorobenzyl)-3-(trifluoromethyl)-N-(2-(3-methylpiperidin-1-yl)ethyl)-1H-pyrazole-5-carboxamide] | 100% | 
5 | CC1CCCCN1CCN(Cc1cc(N)ccc1Cl)C(=O)c1cc(C(F)(F)F)n[nH]1 (stereo not drawn) [Example 202, N-(5-amino-2-chlorobenzyl)-3-(trifluoromethyl)-N-(2-(2-methylpiperidin-1-yl)ethyl)-1H-pyrazole-5-carboxamide] | 100% | 
6 | CC1CCCCN1CCN(Cc1ccccc1F)C(=O)c1cc(C(F)(F)F)n[nH]1 (stereo not drawn) [Example 203, N-(2-fluorobenzyl)-3-(trifluoromethyl)-N-(2-(2-methylpiperidin-1-yl)ethyl)-1H-pyrazole-5-carboxamide] | 100% | 
7 | CCN(CCN(Cc1ccccc1Cl)C(=O)c1cc(C(F)(F)F)n[nH]1)C(C)C [Example 204, N-(2-chlorobenzyl)-N-(2-(ethyl-isopropylamino)ethyl)-3-(trifluoromethyl)-1H-pyrazole-5-carboxamide] | 53% | 
8 | O=C(c1cc(C(F)(F)F)n[nH]1)N(CCN1CCC(F)(F)CC1)Cc1ccccc1Cl [Example 205, N-(2-chlorobenzyl)-3-(trifluoromethyl)-N-(2-(4,4-difluoropiperidin-1-yl)ethyl)-1H-pyrazole-5-carboxamide] | 100% | 
9 | O=C(c1cc(C(F)(F)F)n[nH]1)N(CCN1CCCC1)Cc1cccc2[nH]cc(F)c12 [Example 206, N-((3-fluoro-1H-indol-4-yl)methyl)-3-(trifluoromethyl)-N-(2-(pyrrolidin-1-yl)ethyl)-1H-pyrazole-5-carboxamide] | 100% | 
10 | CCCN(CC)CCN(Cc1ccccc1Cl)C(=O)c1cc(C(F)(F)F)n[nH]1 [Example 209, N-(2-chlorobenzyl)-N-(2-(ethyl-propylamino)ethyl)-3-(trifluoromethyl)-1H-pyrazole-5-carboxamide] | 100% | 
11 | CC1CCCC(C)N1CCN(Cc1ccccc1Cl)C(=O)c1cc(C(F)(F)F)n[nH]1 (stereo not drawn) [Example 212, N-(2-chlorobenzyl)-3-(trifluoromethyl)-N-(2-(2,6-dimethylpiperidin-1-yl)ethyl)-1H-pyrazole-5-carboxamide] | 53% | 
12 | COc1ccc(N)cc1CN(CCN1CCCCCC1)C(=O)c1cc(C(F)(F)F)n[nH]1 [Example 215, N-(5-amino-2-methoxybenzyl)-N-(2-(azepan-1-yl)ethyl)-3-(trifluoromethyl)-1H-pyrazole-5-carboxamide] | 100% | 
13 | O=C(c1cc(C(F)(F)F)n[nH]1)N(CCN1CCC(O)CC1)Cc1ccccc1Cl [Example 219, N-(2-chlorobenzyl)-3-(trifluoromethyl)-N-(2-(4-hydroxypiperidin-1-yl)ethyl)-1H-pyrazole-5-carboxamide] | 100% | 
14 | O=C(c1cc(C(F)(F)F)n[nH]1)N(CCN1CCCC(O)C1)Cc1ccccc1Cl (stereo not drawn) [Example 220, N-(2-chlorobenzyl)-3-(trifluoromethyl)-N-(2-(3-hydroxypiperidin-1-yl)ethyl)-1H-pyrazole-5-carboxamide] | 100% | 
15 | CC(CN(Cc1c(N)cccc1Cl)C(=O)c1cc(C(F)(F)F)n[nH]1)N1CCCC1 (stereo not drawn) [Example 221, N-(2-amino-6-chlorobenzyl)-3-(trifluoromethyl)-N-(2-(pyrrolidin-1-yl)propyl)-1H-pyrazole-5-carboxamide] | 60% | 
16 | Nc1cccc(Cl)c1CN(CCN1CCCC1)C(=O)c1cc(C(F)(F)F)n[nH]1 [Example 222, N-(2-amino-6-chlorobenzyl)-3-(trifluoromethyl)-N-(2-(pyrrolidin-1-yl)ethyl)-1H-pyrazole-5-carboxamide] | 100% | 
17 | Nc1cccc(Cl)c1CN(CCN1CCS(=O)(=O)CC1)C(=O)c1cc(C(F)(F)F)n[nH]1 [Example 224, N-(2-amino-6-chlorobenzyl)-N-(2-(4-dioxothiomorpholino)ethyl)-3-(trifluoromethyl)-1H-pyrazole-5-carboxamide] | 100% | 
18 | Nc1cccc(Cl)c1CN(CCN1CCCC(O)C1)C(=O)c1cc(C(F)(F)F)n[nH]1 (stereo not drawn) [Example 225, N-(2-amino-6-chlorobenzyl)-3-(trifluoromethyl)-N-(2-(3-hydroxypiperidin-1-yl)ethyl)-1H-pyrazole-5-carboxamide] | 100% | 
19 | CS(=O)(=O)N1CCCC(CCN(Cc2ccccc2Cl)C(=O)c2cc(C(F)(F)F)n[nH]2)C1 (stereo not drawn) [Example 228, N-(2-chlorobenzyl)-N-(2-(1-(methylsulfonyl)piperidin-3-yl)ethyl)-3-(trifluoromethyl)-1H-pyrazole-5-carboxamide] | 100% | 
20 | O=C(c1cc(C(F)(F)F)n[nH]1)N(CCc1ccc(O)cc1)Cc1ccccc1Cl [Example 230, N-(2-chlorobenzyl)-N-(4-hydroxyphenethyl)-3-(trifluoromethyl)-1H-pyrazole-5-carboxamide] | 100% | 
21 | CCN1CCCC1CN(Cc1ccccc1Cl)C(=O)c1cc(C(F)(F)F)n[nH]1 (stereo not drawn) [Example 231, N-(2-chlorobenzyl)-N-((1-ethylpyrrolidin-2-yl)methyl)-3-(trifluoromethyl)-1H-pyrazole-5-carboxamide] | 65% | 148
22 | O=C(c1cc(C(F)(F)F)n[nH]1)N(Cc1ccccc1Cl)CC1CCCN1 (stereo not drawn) [Example 232, N-(2-chlorobenzyl)-3-(trifluoromethyl)-N-((pyrrolidin-2-yl)methyl)-1H-pyrazole-5-carboxamide] | 85% | 
23 | Nc1cccc(Cl)c1CN(CC1CCN1)C(=O)c1cc(C(F)(F)F)n[nH]1 (stereo not drawn) [Example 233, N-(2-amino-6-chlorobenzyl)-N-((azetidin-2-yl)methyl)-3-(trifluoromethyl)-1H-pyrazole-5-carboxamide] | 75% | 

Now from value to compound:

Row | Max. Resp. | AC50 [nM] | SMILES
24 | 100% |  | Nc1ccc(Cl)c(CN(CCN2CCCCCC2)C(=O)c2cc(C(F)(F)F)n[nH]2)c1 [Example 196, N-(5-amino-2-chlorobenzyl)-N-(2-(azepan-1-yl)ethyl)-3-(trifluoromethyl)-1H-pyrazole-5-carboxamide]
25 | 100% |  | O=C(c1cc(C(F)(F)F)n[nH]1)N(CCN1CCCCCC1)Cc1ccccc1F [Example 197, N-(2-fluorobenzyl)-N-(2-(azepan-1-yl)ethyl)-3-(trifluoromethyl)-1H-pyrazole-5-carboxamide]
26 | 100% |  | O=C(c1cc(C(F)(F)F)n[nH]1)N(CCN1CCCCCC1)Cc1c(F)cccc1F [Example 198, N-(2,6-difluorobenzyl)-N-(2-(azepan-1-yl)ethyl)-3-(trifluoromethyl)-1H-pyrazole-5-carboxamide]
27 | 75% |  | Nc1ccc(CN(CCN2CCCCCC2)C(=O)c2cc(C(F)(F)F)n[nH]2)c(Cl)c1 [Example 207, N-(4-amino-2-chlorobenzyl)-N-(2-(azepan-1-yl)ethyl)-3-(trifluoromethyl)-1H-pyrazole-5-carboxamide]
28 | 100% |  | O=C(c1cc(C(F)(F)F)n[nH]1)N(CCN1CCCCCC1)Cc1cccc2nc[nH]c12 [Example 208, N-((1H-benzo[d]imidazol-7-yl)methyl)-N-(2-(azepan-1-yl)ethyl)-3-(trifluoromethyl)-1H-pyrazole-5-carboxamide]
29 | 100% |  | O=C(c1cc(C(F)(F)F)n[nH]1)N(CCN1CCCCCC1)Cc1cccc([N+](=O)[O-])c1Cl [Example 210, N-(2-chloro-3-nitrobenzyl)-N-(2-(azepan-1-yl)ethyl)-3-(trifluoromethyl)-1H-pyrazole-5-carboxamide]
30 | 100% |  | O=C(c1cc(C(F)(F)F)n[nH]1)N(CCN1CCCCCC1)Cc1c(Cl)cccc1[N+](=O)[O-] [Example 211, N-(2-chloro-6-nitrobenzyl)-N-(2-(azepan-1-yl)ethyl)-3-(trifluoromethyl)-1H-pyrazole-5-carboxamide]
31 | 100% |  | Nc1cccc(CN(CCN2CCCCCC2)C(=O)c2cc(C(F)(F)F)n[nH]2)c1Cl [Example 213, N-(3-amino-2-chlorobenzyl)-N-(2-(azepan-1-yl)ethyl)-3-(trifluoromethyl)-1H-pyrazole-5-carboxamide]
32 | 100% |  | Nc1ccc(F)c(CN(CCN2CCCCCC2)C(=O)c2cc(C(F)(F)F)n[nH]2)c1 [Example 214, N-(5-amino-2-fluorobenzyl)-N-(2-(azepan-1-yl)ethyl)-3-(trifluoromethyl)-1H-pyrazole-5-carboxamide]
33 | 100% |  | Nc1cccc(CN(CCN2CCCCCC2)C(=O)c2cc(C(F)(F)F)n[nH]2)c1F [Example 216, N-(3-amino-2-fluorobenzyl)-N-(2-(azepan-1-yl)ethyl)-3-(trifluoromethyl)-1H-pyrazole-5-carboxamide]
34 | 100% |  | COc1c(N)cccc1CN(CCN1CCCCCC1)C(=O)c1cc(C(F)(F)F)n[nH]1 [Example 217, N-(3-amino-2-methoxybenzyl)-N-(2-(azepan-1-yl)ethyl)-3-(trifluoromethyl)-1H-pyrazole-5-carboxamide]
35 | 100% |  | Nc1cccc(Cl)c1CN(CCN1CCCCCC1)C(=O)c1cc(C(F)(F)F)n[nH]1 [Example 218, N-(2-amino-6-chlorobenzyl)-N-(2-(azepan-1-yl)ethyl)-3-(trifluoromethyl)-1H-pyrazole-5-carboxamide]
